Results as given in patent US20260216343A1, “CONJUGATE, MICELLE AND ANTICANCER AGENT” (TOHOKU UNIVERSITY, priority 2023, published 2026).
Structures can show the parent of a compound that is named as a salt.

Tests used:
[1] = system: Nrf2-activated lung adenocarcinoma; assay: Tumor suppression in Kras-driven Nrf2-activated lung adenocarcinoma mouse model; format: in vivo, Keap1^FB/FB:Kras^G12D mice
Excerpt: (§1) Keap1^FB/FB:Kras^G12D mice were produced in the same manner as in Cancer Res, 15 Aug. 2020, 80(16):3331-3344, Genes & Dev., 2001, 15:3243-3248, and Am J Respir Cell Mol Biol., 2010 May, 42(5):524-36. All the mice used in this test had the C57BL/6J background. Saline, HF, and HFm were intravenously injected to the mice. All the in vivo experiments were approved by the animal welfare committee of Tohoku University.
Adeno-Cre was purchased from VectorBioLabs (Ad-Cre-GFP, catalog no. 1700). Adeno-Cre was administered in the same manner as in Nat Protoc 4, 2009, 1064-1072. Briefly, 1×10^7 plaque-forming units of Adeno-Cre were mixed with Eagle's minimum essential medium (MEM) and calcium chloride. The mixture was incubated on ice for 20 minutes and used for intranasal dropping within one hour of the preparation. Droplets containing the Adeno-Cre mixture were administered to the nostrils of anesthetized mice (eight to 12 weeks old) using a pipette. The mice were allowed to inhale the droplets gradually.
The lung tissues were fixed in 10% formalin (Mildform 10N; FUJIFILM Wako Pure Chemical Corporation, Osaka) and embedded in paraffin. The slices were stained with hematoxylin-eosin (HE) or elastica-Masson (EM). To measure the tumor areas, five slices were cut out with a certain distance and stained with HE. The tumor areas were measured using ImageJ software (NIH).
To examine whether administration of HF or HFm could suppress the progress of Nrf2-activated non-small-cell lung cancer (NSCLC), a Kras-driven lung adenocarcinoma mouse model was used (Genes&Dev., 2001, 15:3243-3248). A mouse having a loxP-Stop-loxP Kras^G12D-knocked-in allele (hereinafter also referred to as “Kras mouse”) was mated with a mouse having a Keap1-flox allele in the loxP site including the third and fourth exons (hereinafter also referred to as “Keap1^FB”) (Am J Respir Cell Mol Biol., 2010 May, 42(5):524-36), and thus a Keap1^FB/FB:Kras^G12D complex mouse was obtained (Cancer Res, 15 Aug. 2020, 80(16):3331-3344). Through Cre recombination by intranasal infection with Adeno-Cre, activation of Kras cancer gene and deletion of Keap1 exons were achieved simultaneously. By this operation, Nrf2-activated lung adenocarcinoma was successfully imitated in mice.
Then, after the tumor was grown for 17 weeks, administration of HF or HFm was started. HF or HFm was intravenously administered every two days, and injection was conducted four times in total. Because the MTD of HF was determined to be 0.75 mg/kg bw (FIG. 2), it was decided to use 0.75 mg/kg bw of HF or HFm in this cancer-bearing mouse experiment. The mice were sacrificed on the eighth day. Various characteristics of the lung tumors were analyzed, and the effectiveness of HF and HFm changing the tumor burden was evaluated (FIG. 4A).
Next, by EM staining of the lung slices, the influence of HF and HFm on the malignancy of tumors was examined (FIG. 4C, bottom). Using images of the slices, the lung lesions were evaluated according to the guidelines of the system of the 2015 World Health Organization Classification of Lung Tumors (Front Oncol., 2017 Aug 28, 7: 193). Briefly, lung tumors include two types, namely a lepidic lesion and a papillary lesion. A lepidic lesion indicates in situ proliferation of cells along the alveolar walls (arrows with “x”), while a papillary lesion indicates proliferation away from the alveolar walls (arrows with “y”). A tumor with many papillary lesions is called Grade II, and it is known that the prognoses of a patient having many papillary tumors is poor compared to that of a patient having many lepidic tumors (Grade I). When the main component of the tumor is composed of a solid sheet and when no recognizable lepidic or papillary pattern is found, the tumor is classified as a solid tumor (Grade III).
After KRAS-driven lung adenocarcinoma was grown for 17 weeks, the mice were treated with saline, HF (0.25 mg/kg), or HFm (0.25 mg/kg) every two days four times in total (FIG. 7A).

[2] = Dose-dependent in vivo toxicity / maximum tolerated dose of HF; parameters: species or system WT C57BL/6 mice
Excerpt: as §1
Monocytes were isolated from the bone marrow, the spleen, and the thymus using Ficoll-Paque PREMIUM 1.084 (Cytiva 17-5446-02). The monocytes were stained with allophycocyanin-eFluor 780 conjugate anti-c-Kit (Invitrogen; Clone 2B8), Brilliant Violet 421 conjugate anti-B220 (Biolegend; Clone RA2-6B2), phycoerythrin conjugate anti-F4/80 (Biolegend; Clone BM8), fluorescein isothiocyanate conjugate anti-Ly6G (Biolegend; Clone 1A8), Brilliant Violet 421 conjugate anti-CD11b (Biolegend; Clone M1/70), fluorescein isothiocyanate conjugate anti-CD71 (eBiosciences; CloneR17217), phycoerythrin conjugate anti-Ter119 (eBiosciences; Clone TER-119), PE-Cyanine7 conjugate anti-CD4 (Invitrogen; CloneGK1.5), and allophycocyanin conjugate anti-CD8 (Biolegend; Clone S3-6.7). The dead cells were removed using propidium iodide staining. The analysis was made using FACSVerse (BD Biosciences). The data were analyzed using FlowJo software (BD Biosciences).
Preclinical animal testing was conducted to determine the maximum tolerated dose (hereinafter also referred to as MTD) of HF. […] Thus, in this test, HF was administered to WT C57BL/6 mice (eight to 12 weeks old, both females and males) incrementally in the range of 0.25 mg/kg to 1 mg/kg (FIG. 2A). HF was administered to the tail veins every two days four times in total.

[3] = 0.75 mg/kg bw iv four times, vs. saline
[4] = 0.25 to 0.75 mg/kg iv four times

Structure (SMILES): O=C(CC1NCCCC1O)Cn1cnc2cc(Br)c(Cl)cc2c1=O (stereo not shown) [HF, Halofuginone hydrobromide]
- number of papillary lesions vs. saline ([1]; 0.25 mg/kg bw iv four times): far smaller
- number of solid tumors vs. saline ([1]; 0.25 mg/kg bw iv four times): smaller with significance
- lung weight vs. saline-treated mice ([1]; 0.75 mg/kg bw iv every two days four times, day 8): lower with significance
- solid adenocarcinomas of Grade III ([1]; 0.75 mg/kg bw iv four times): disappeared completely
- number of lepidic (Grade I) tumors [1, 3]: equivalent numbers
- number of papillary (Grade II) tumors [1, 3]: equivalent numbers
- frequency of the papillary tumors ([1]; 0.75 mg/kg bw iv four times, vs. saline control): lower
- tumor area (HE-stained lung sections) ([1]; 0.75 mg/kg bw iv four times, saline-treated group 21%): 10%
- lung weight decrease (saline vs. treatment) ([1]; high dose (0.75 mg/kg)): 37.6%
- tumor area decrease (saline vs. treatment) ([1]; high dose (0.75 mg/kg)): 9.95%
- lung weight decrease (saline vs. treatment) ([1]; low dose (0.25 mg/kg)): 25.7%
- tumor area decrease (saline vs. treatment) ([1]; low dose (0.25 mg/kg)): 7.42%
- disappearance of solid tumors ([1]; low-dose therapy (0.25 mg/kg bw)): did not disappear completely
- bone marrow B cell count (B220+) ([2]; 0.75 mg/kg iv four times): decreased
- erythroblasts (Ter119+CD71+) of the spleen ([2]; 0.75 mg/kg iv four times): most of the erythroblasts disappeared
- acute condition of mice ([2]; 1 mg/kg iv every two days): showed a sign of acute disorder after two injections and were moribund
- body weight change ([2]; 1 mg/kg iv, day 1 vs. day 4): −13.4%
- mortality ([2]; 1 mg/kg iv, eight mice, after second administration): one mouse in the administration group died
- bone marrow precursor cell count (c-Kit+) [2, 4]: did not change largely
- bone marrow total cell count [2, 4]: did not change largely
- erythroblasts (Ter119+CD71+) of the spleen [2, 4]: decreased largely in a dose-dependent manner
- erythrocyte counts in peripheral blood [2, 4]: equivalent in all the groups
- leukocyte count in peripheral blood [2, 4]: decreased in a dose-dependent manner
- platelet counts in peripheral blood [2, 4]: equivalent in all the groups
- thymus weight [2, 4]: decreased with significance in a dose-dependent manner
- whole cells of the spleen [2, 4]: decreased largely in a dose-dependent manner
- thymus CD4 single-positive (CD4+CD8-) cells ([2]; HF iv four times): decreased
- thymus CD8 single-positive (CD4-CD8+) cells ([2]; HF iv four times): tendency towards a decrease
- total cells of the thymus ([2]; HF iv four times): decreased
- spleen weight ([2]; increasing HF dose, iv four times): decreased stepwisely
- maximum tolerated dose (MTD) ([2]; iv every two days four times): 0.75 mg/kg bw
